Results from US9669034B2, “4-aryl-N-phenyl-1,3,5-triazin-2-amines containing a sulfoximine group” (BAYER INTELLECTUAL PROPERTY GMBH, priority 2011, dated 2017).
pIC50: −log10 of the molar value.

Legend:
CDK2/CycE = CDK2/CycE (Homo sapiens (Human), UniProt P24941); assay: CDK2/CycE kinase assay (TR-FRET); format: biochemical; conditions: Method 2
Excerpt: 2. CDK2/CycE Kinase Assay:
CDK2/CycE—inhibitory activity of compounds of the present invention was quantified employing the CDK2/CycE TR-FRET assay as described in the following paragraphs:
Recombinant fusion proteins of GST and human CDK2 and of GST and human CycE, expressed in insect cells (Sf9) and purified by Glutathion-Sepharose affinity chromatography, were purchased from ProQinase GmbH (Freiburg, Germany). As substrate for the kinase reaction biotinylated peptide biotin-Ttds-[…]

CDK9/CycT1 = CDK9/CycT1 (Homo sapiens (Human), UniProt P50750); assay: CDK9/CycT1 kinase assay (TR-FRET); format: biochemical; conditions: Method 1
Sequence of CDK9/CycT1 (P50750 whole entry): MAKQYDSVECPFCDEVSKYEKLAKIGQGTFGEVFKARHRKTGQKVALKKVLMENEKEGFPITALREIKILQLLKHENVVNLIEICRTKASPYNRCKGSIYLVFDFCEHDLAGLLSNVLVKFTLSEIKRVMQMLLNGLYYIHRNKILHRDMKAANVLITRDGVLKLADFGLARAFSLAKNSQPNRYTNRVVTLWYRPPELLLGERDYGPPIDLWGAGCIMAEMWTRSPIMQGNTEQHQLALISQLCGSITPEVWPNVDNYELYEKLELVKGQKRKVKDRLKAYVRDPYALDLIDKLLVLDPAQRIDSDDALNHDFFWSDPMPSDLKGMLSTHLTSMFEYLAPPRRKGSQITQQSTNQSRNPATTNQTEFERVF
Sequence of CDK9/CycT1 (O60563 whole entry partner): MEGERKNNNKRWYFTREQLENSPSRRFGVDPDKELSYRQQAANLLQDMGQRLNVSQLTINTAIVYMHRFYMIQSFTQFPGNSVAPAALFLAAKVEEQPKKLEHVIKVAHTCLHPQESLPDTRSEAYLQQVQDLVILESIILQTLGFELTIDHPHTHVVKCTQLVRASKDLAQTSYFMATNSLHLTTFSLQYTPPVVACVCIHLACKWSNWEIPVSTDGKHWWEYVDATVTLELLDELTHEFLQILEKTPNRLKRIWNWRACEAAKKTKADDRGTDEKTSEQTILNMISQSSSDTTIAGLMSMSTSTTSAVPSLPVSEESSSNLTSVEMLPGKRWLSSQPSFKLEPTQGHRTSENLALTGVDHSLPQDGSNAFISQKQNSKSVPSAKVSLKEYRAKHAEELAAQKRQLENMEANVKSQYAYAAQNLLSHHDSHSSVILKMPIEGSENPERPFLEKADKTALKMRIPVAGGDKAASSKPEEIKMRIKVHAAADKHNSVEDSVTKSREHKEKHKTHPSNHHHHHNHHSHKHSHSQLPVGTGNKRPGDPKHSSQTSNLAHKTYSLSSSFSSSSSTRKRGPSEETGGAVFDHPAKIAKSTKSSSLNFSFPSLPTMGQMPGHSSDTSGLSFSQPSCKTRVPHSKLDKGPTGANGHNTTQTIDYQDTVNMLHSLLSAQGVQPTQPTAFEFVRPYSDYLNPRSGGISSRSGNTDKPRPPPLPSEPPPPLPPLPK
Excerpt: 1. CDK9/CycT1 Kinase Assay:
CDK9/CycT1—inhibitory activity of compounds of the present invention was quantified employing the CDK9/CycT1 TR-FRET assay as described in the following paragraphs:
Recombinant full-length His-tagged human CDK9 and CycT1, expressed in insect cells and purified by Ni-NTA affinity chromatography, were purchased from Invitrogen (Cat. No PV4131). As substrate for the kinase reaction biotinylated peptide biotin-Ttds-[…]

| SMILES | pIC50 (CDK2/CycE) | pIC50 (CDK9/CycT1) |
| --- | --- | --- |
| CCOC(=O)N=S(C)(=O)Cc1cccc(Nc2ncnc(-c3ccc(F)cc3OC)n2)c1 (racemic) [Example 1, (rac)-Ethyl [(3-{[4-(4-fluoro-2-methoxyphenyl)-1,3,5-triazin-2-yl]amino}benzyl)(methyl)oxido-λ^6-sulfanylidene]carbamate] | 5.66 | – |
| CS(=N)(=O)Cc1cccc(Nc2ncnc(-c3ccc(F)cc3OCc3ccccc3)n2)c1 (racemic) [Example 6, (rac)-4-[2-(Benzyloxy)-4-fluorophenyl]-N-{3-[(S-methylsulfonimidoyl)methyl]phenyl}-1,3,5-triazin-2-amine] | 6.66 | 8.52 |
| CCOC(=O)N=S(C)(=O)Cc1cccc(Nc2ncnc(-c3ccc(Cl)cc3OC)n2)c1 (racemic) [Example 11, (rac)-Ethyl [(3-{[4-(4-chloro-2-methoxyphenyl)-1,3,5-triazin-2-yl]amino}benzyl)(methyl)oxido-λ^6-sulfanylidene]carbamate] | 5.26 | 7.64 |
| COc1cc(Cl)ccc1-c1ncnc(Nc2cccc(CS(C)(=N)=O)c2)n1 (racemic) [Example 12, (rac) 4-(4-Chloro-2-methoxyphenyl)-N-{3-[(S-methylsulfonimidoyl)methyl]phenyl}-1,3,5-triazin-2-amine] | 5.17 | 7.13 |
| CCOC(=O)N=S(C)(=O)Cc1cccc(Nc2ncnc(-c3cccc4c3OC(F)(F)O4)n2)c1 (racemic) [Example 18, (rac)-Ethyl [(3-{[4-(2,2-difluoro-1,3-benzodioxol-4-yl)-1,3,5-triazin-2-yl]amino}benzyl)(methyl)oxido-λ^6-sulfanylidene]carbamate] | 5.41 | 7.48 |
| CS(=N)(=O)Cc1cccc(Nc2ncnc(-c3cccc4c3OC(F)(F)O4)n2)c1 (racemic) [Example 19, (rac)-4-(2,2-Difluoro-1,3-benzodioxol-4-yl)-N-{3-[(S-methylsulfonimidoyl)methyl]phenyl}-1,3,5-triazin-2-amine] | 5.68 | 7.23 |
| CCOC(=O)N=S(C)(=O)Cc1cccc(Nc2ncnc(-c3cc(F)ccc3OC)n2)c1 (racemic) [Example 20, (rac)-Ethyl [(3-{[4-(5-fluoro-2-methoxyphenyl)-1,3,5-triazin-2-yl]amino}benzyl)(methyl)oxido-λ^6-sulfanylidene]carbamate] | 5.70 | 7.66 |
| COc1ccc(F)cc1-c1ncnc(Nc2cccc(CS(C)(=N)=O)c2)n1 (racemic) [Example 21, (rac)-4-(5-Fluoro-2-methoxyphenyl)-N-{3-[(S-methylsulfonimidoyl)methyl]phenyl}-1,3,5-triazin-2-amine] | 5.46 | 7.25 |
| COc1ccccc1-c1ncnc(Nc2cccc(CS(C)(=N)=O)c2)n1 (racemic) [Example 26, (rac)-4-(2-Methoxyphenyl)-N-{3-[(S-methylsulfonimidoyl)methyl]phenyl}-1,3,5-triazin-2-amine] | 5.34 | 7.46 |
| CCOC(=O)N=S(C)(=O)Cc1cccc(Nc2ncnc(-c3cccc4c3OCC4)n2)c1 (racemic) [Example 33, (rac)-Ethyl [(3-{[4-(2,3-dihydro-1-benzofuran-7-yl)-1,3,5-triazin-2-yl]amino}benzyl)(methyl)oxido-λ^6-sulfanylidene]carbamate] | 5.51 | 7.68 |
| CS(=N)(=O)Cc1cccc(Nc2ncnc(-c3cccc4c3OCC4)n2)c1 (racemic) [Example 34, (rac)-4-(2,3-Dihydro-1-benzofuran-7-yl)-N-{3-[(S-methylsulfonimidoyl)methyl]phenyl}-1,3,5-triazin-2-amine] | 5.66 | 7.17 |
| CS(=N)(=O)Cc1cccc(Nc2ncnc(-c3cccc4c3OCCO4)n2)c1 (racemic) [Example 38, (rac)-4-(2,3-Dihydro-1,4-benzodioxin-5-yl)-N-{3-[(S-methylsulfonimidoyl)methyl]phenyl}-1,3,5-triazin-2-amine] | 5.80 | 7.85 |
| CN=S(C)(=O)Cc1cccc(Nc2ncnc(-c3ccc(F)cc3OC)n2)c1 (racemic) [Example 41, (rac)-N-{3-[(N,S-Dimethylsulfonimidoyl)methyl]phenyl}-4-(4-fluoro-2-methoxyphenyl)-1,3,5-triazin-2-amine] | 5.59 | 7.44 |
| CCOC(=O)N=S(C)(=O)Cc1cccc(Nc2ncnc(-c3cccc(Cl)c3OC)n2)c1 (racemic) [Example 45, (rac)-Ethyl [(3-{[4-(3-chloro-2-methoxyphenyl)-1,3,5-triazin-2-yl]amino}benzyl)(methyl)oxido-λ^6-sulfanylidene]carbamate] | 5.05 | 6.09 |
| CCOC(=O)N=S(C)(=O)Cc1cccc(Nc2ncnc(-c3cc(F)ccc3OCC3CCOCC3)n2)c1 (racemic) [Example 46, (rac)-Ethyl {[3-({4-[5-fluoro-2-(tetrahydro-2H-pyran-4-ylmethoxy)phenyl]-1,3,5-triazin-2-yl}amino)benzyl](methyl)oxido-λ^6-sulfanylidene}carbamate] | 4.96 | 6.92 |
| CCOC(=O)N=S(C)(=O)Cc1cccc(Nc2ncnc(-c3ccccc3Oc3ccccc3)n2)c1 (racemic) [Example 47, (rac)-Ethyl [methyl(oxido)(3-{[4-(2-phenoxyphenyl)-1,3,5-triazin-2-yl]amino}benzyl)-λ^6-sulfanylidene]carbamate] | 5.19 | 7.46 |
| CS(=N)(=O)Cc1cccc(Nc2ncnc(-c3ccc(F)cc3OCCC3CCOCC3)n2)c1 (racemic) [Example 57, (rac)-4-{4-Fluoro-2-[2-(tetrahydro-2H-pyran-4-yl)ethoxy]phenyl}-N-{3-[(S-methylsulfonimidoyl)methyl]phenyl}-1,3,5-triazin-2-amine] | 5.08 | 6.43 |
| COc1cc(F)ccc1-c1ncnc(Nc2cccc(CS(=N)(=O)C3CCOCC3)c2)n1 (racemic) [Example 58, (rac)-4-(4-Fluoro-2-methoxyphenyl)-N-(3-{[S-(tetrahydro-2H-pyran-4-yl)sulfonimidoyl]methyl}phenyl)-1,3,5-triazin-2-amine] | 5.28 | 7.05 |
| CCOC(=O)N=S(C)(=O)Cc1cccc(Nc2ncnc(-c3ccccc3OCc3ccc(Cl)c(Cl)c3)n2)c1 (racemic) [Example 60, (rac)-Ethyl [{3-[(4-{2-[(3,4-dichlorobenzyl)oxy]phenyl}-1,3,5-triazin-2-yl)amino]benzyl}(methyl)oxido-λ^6-sulfanylidene]carbamate] | 5.48 | 7.89 |
| CS(=N)(=O)Cc1cccc(Nc2ncnc(-c3ccccc3OCc3ccc(Cl)c(Cl)c3)n2)c1 (racemic) [Example 61, (rac)-4-{2-[(3,4-Dichlorobenzyl)oxy]phenyl}-N-{3-[(S-methylsulfonimidoyl)methyl]phenyl}-1,3,5-triazin-2-amine] | 5.92 | 7.82 |
| [2H]c1c([2H])c([2H])c(C([2H])([2H])Oc2cc(F)ccc2-c2ncnc(Nc3cccc(CS(C)(=N)=O)c3)n2)c([2H])c1[2H] (racemic) [Example 62, (rac)-4-(4-Fluoro-2-{[(^2H5)phenyl(^2H2)methyl]oxy}phenyl)-N-{3-[(S-methylsulfonimidoyl)methyl]phenyl}-1,3,5-triazin-2-amine] | 6.66 | 8.15 |
| CS(=N)(=O)Cc1cccc(Nc2ncnc(-c3ccc(F)cc3OCCC(F)(F)F)n2)c1 (racemic) [Example 65, (rac)-4-[4-Fluoro-2-(3,3,3-trifluoropropoxy)phenyl]-N-{3-[(S-methylsulfonimidoyl)methyl]phenyl}-1,3,5-triazin-2-amine] | 5.22 | 7.10 |
| CS(=N)(=O)Cc1cccc(Nc2ncnc(-c3ccc(F)cc3OCc3ccccn3)n2)c1 (racemic) [Example 67, (rac)-4-[4-Fluoro-2-(pyridin-2-ylmethoxy)phenyl]-N-{3-[(S-methylsulfonimidoyl)methyl]phenyl}-1,3,5-triazin-2-amine] | 5.16 | 7.01 |
| COc1cc(F)ccc1-c1ncnc(Nc2cc(F)c(F)c(CS(C)(=N)=O)c2)n1 (racemic) [Example 106, (rac)-N-{3,4-Difluoro-5-[(S-methylsulfonimidoyl)methyl]phenyl}-4-(4-fluoro-2-methoxyphenyl)-1,3,5-triazin-2-amine] | 6.40 | – |
| COc1cc(F)ccc1-c1ncnc(Nc2cccc(CS(=O)(=NC#N)C3CC3)c2)n1 (racemic) [Example 113, (rac)-[Cyclopropyl(3-{[4-(4-fluoro-2-methoxyphenyl)-1,3,5-triazin-2-yl]amino}benzyl)oxido-λ^6-sulfanylidene]cyanamide] | 6.52 | 8.70 |
| COc1cc(Cl)ccc1-c1ncnc(Nc2cccc(CS(C)(=N)=O)c2)n1 (single isomer, unassigned) [Example 13, 4-(4-Chloro-2-methoxyphenyl)-N-{3-[(S-methylsulfonimidoyl)methyl]phenyl}-1,3,5-triazin-2-amine] | 5.02 | 7.03 |
| COc1cc(F)ccc1-c1ncnc(Nc2cc(F)cc(CS(C)(=N)=O)c2)n1 (single isomer, unassigned) [Example 53, 4-(4-Fluoro-2-methoxyphenyl)-N-{3-fluoro-5-[(S-methylsulfonimidoyl)methyl]phenyl}-1,3,5-triazin-2-amine] | 6.27 | – |
| CC(Oc1cc(F)ccc1-c1ncnc(Nc2cccc(CS(C)(=N)=O)c2)n1)C1CCCC1 (stereo not shown) [Example 63, 4-[2-(1-cyclopentylethoxy)-4-fluorophenyl]-N-{3-[(S-methylsulfonimidoyl)methyl]phenyl}-1,3,5-triazin-2-amine] | – | 7.00 |
